Laboratory results as given in the NIST ThermoML archive (doi:10.1016/j.fluid.2013.12.015).
± gives the expanded uncertainty stated by the source.

Settings: Liquid, Closed cell (Static) method

| Compound | vapor or sublimation pressure (283.15 K) [kPa] | vapor or sublimation pressure (293.15 K) [kPa] | vapor or sublimation pressure (303.15 K) [kPa] | vapor or sublimation pressure (313.15 K) [kPa] | vapor or sublimation pressure (323.15 K) [kPa] |
| --- | --- | --- | --- | --- | --- |
| C=C(F)C(F)(F)F [2,3,3,3-tetrafluoro-1-propene] | 436.5 ± 7 | 591 ± 7.1 | 780.5 ± 7.1 | 1015.6 ± 7.2 | 1300.7 ± 7.2 |
| CC(C)C [2-methylpropane] | 222.2 ± 7 | 303.3 ± 7 | 406 ± 7 | 530.3 ± 7 | 684.4 ± 7.1 |
